Paper PMC7156458, “Synthetic biology based construction of biological activity-related library of fungal decalin-containing diterpenoid pyrones” (Nature Communications, 2020)

Target: Aβ42 (Homo sapiens, UniProt P05067)
Assay: Th-T (thioflavin-T) assay of Aβ42 aggregation
Format: biochemical
Conditions: for Th-T assay plate reading, mean of three wells (Supplementary Fig. 47): source data, Ab alone and No Ab as controls

Sequence of Aβ42 (P05067 672-713): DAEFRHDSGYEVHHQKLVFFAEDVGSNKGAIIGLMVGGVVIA

## C=C1CCC2C(C)(CCC=C(C)C)C(O)CCC2(C)C1Cc1c(OC)oc(C)c(C)c1=O (stereo not drawn) [Compound 15, viridoxin A hydrolysate]
Aβ42 aggregation time course, reading M117
  Th-T fluorescence, mean of three wells: 3.35
Aβ42 aggregation time course, reading M118
  Th-T fluorescence, mean of three wells: 3.314
Aβ42 aggregation time course, reading M119
  Th-T fluorescence, mean of three wells: 3.3216
Aβ42 aggregation time course, reading M120
  Th-T fluorescence, mean of three wells: 3.354
Aβ42 aggregation time course, reading M121
  Th-T fluorescence, mean of three wells: 3.335
Aβ42 aggregation time course, reading M122
  Th-T fluorescence, mean of three wells: 3.364
Aβ42 aggregation time course, reading M123
  Th-T fluorescence, mean of three wells: 3.352
Aβ42 aggregation time course, reading M124
  Th-T fluorescence, mean of three wells: 3.339
Aβ42 aggregation time course, reading M125
  Th-T fluorescence, mean of three wells: 3.327
Aβ42 aggregation time course, reading M126
  Th-T fluorescence, mean of three wells: 3.362
Aβ42 aggregation time course, reading M127
  Th-T fluorescence, mean of three wells: 3.317
Aβ42 aggregation time course, reading M128
  Th-T fluorescence, mean of three wells: 3.323
Aβ42 aggregation time course, reading M129
  Th-T fluorescence, mean of three wells: 3.297
Aβ42 aggregation time course, reading M130
  Th-T fluorescence, mean of three wells: 3.34
Aβ42 aggregation time course, reading M131
  Th-T fluorescence, mean of three wells: 3.327
Aβ42 aggregation time course, reading M132
  Th-T fluorescence, mean of three wells: 3.341
Aβ42 aggregation time course, reading M133
  Th-T fluorescence, mean of three wells: 3.324
Aβ42 aggregation time course, reading M134
  Th-T fluorescence, mean of three wells: 3.304
Aβ42 aggregation time course, reading M135
  Th-T fluorescence, mean of three wells: 3.315
Aβ42 aggregation time course, reading M136
  Th-T fluorescence, mean of three wells: 3.347
Supplementary Fig. 47, reading M137
  Th-T fluorescence, mean of three wells: 3.349
Supplementary Fig. 47, reading M138
  Th-T fluorescence, mean of three wells: 3.365
Supplementary Fig. 47, reading M139
  Th-T fluorescence, mean of three wells: 3.354
Supplementary Fig. 47, reading M140
  Th-T fluorescence, mean of three wells: 3.356
Supplementary Fig. 47, reading M141
  Th-T fluorescence, mean of three wells: 3.3427
Supplementary Fig. 47, reading M142
  Th-T fluorescence, mean of three wells: 3.34
Supplementary Fig. 47, reading M143
  Th-T fluorescence, mean of three wells: 3.336
Supplementary Fig. 47, reading M144
  Th-T fluorescence, mean of three wells: 3.346
Supplementary Fig. 47, reading M145
  Th-T fluorescence, mean of three wells: 3.328
Measurement M1
  Th-T assay plate reading, mean of three wells (Supplementary Fig. 47): 0.2276
Measurement M2
  Th-T assay plate reading, mean of three wells (Supplementary Fig. 47): 0.2029
Measurement M3
  Th-T assay plate reading, mean of three wells (Supplementary Fig. 47): 0.2068
Measurement M4
  Th-T assay plate reading, mean of three wells (Supplementary Fig. 47): 0.2103
Measurement M5
  Th-T assay plate reading, mean of three wells (Supplementary Fig. 47): 0.2149
Measurement M6
  Th-T assay plate reading, mean of three wells (Supplementary Fig. 47): 0.2264
Measurement M7
  Th-T assay plate reading, mean of three wells (Supplementary Fig. 47): 0.2421
Measurement M8
  Th-T assay plate reading, mean of three wells (Supplementary Fig. 47): 0.3484
Measurement M9
  Th-T assay plate reading, mean of three wells (Supplementary Fig. 47): 0.4623
Measurement M10
  Th-T assay plate reading, mean of three wells (Supplementary Fig. 47): 0.8904
Measurement M11
  Th-T assay plate reading, mean of three wells (Supplementary Fig. 47): 1.43
Measurement M12
  Th-T assay plate reading, mean of three wells (Supplementary Fig. 47): 1.748
Measurement M13
  Th-T assay plate reading, mean of three wells (Supplementary Fig. 47): 1.906
Measurement M14
  Th-T assay plate reading, mean of three wells (Supplementary Fig. 47): 1.9845
Measurement M15
  Th-T assay plate reading, mean of three wells (Supplementary Fig. 47): 1.9935
Measurement M16
  Th-T assay plate reading, mean of three wells (Supplementary Fig. 47): 2.026
Reading M17, Supplementary Fig. 47 source data
  Th-T fluorescence, mean of three wells: 2.072
time-course reading M97, Supplementary Fig. 47 source data
  Th-T fluorescence, mean of three wells: 3.281
time-course reading M98, Supplementary Fig. 47 source data
  Th-T fluorescence, mean of three wells: 3.314
time-course reading M99, Supplementary Fig. 47 source data
  Th-T fluorescence, mean of three wells: 3.322
time-course reading M100, Supplementary Fig. 47 source data
  Th-T fluorescence, mean of three wells: 3.3481
time-course reading M101, Supplementary Fig. 47 source data
  Th-T fluorescence, mean of three wells: 3.295
time-course reading M102, Supplementary Fig. 47 source data
  Th-T fluorescence, mean of three wells: 3.298
time-course reading M103, Supplementary Fig. 47 source data
  Th-T fluorescence, mean of three wells: 3.312
time-course reading M104, Supplementary Fig. 47 source data
  Th-T fluorescence, mean of three wells: 3.321
time-course reading M105, Supplementary Fig. 47 source data
  Th-T fluorescence, mean of three wells: 3.301
time-course reading M106, Supplementary Fig. 47 source data
  Th-T fluorescence, mean of three wells: 3.313
time-course reading M107, Supplementary Fig. 47 source data
  Th-T fluorescence, mean of three wells: 3.319
time-course reading M108, Supplementary Fig. 47 source data
  Th-T fluorescence, mean of three wells: 3.3191
time-course reading M109, Supplementary Fig. 47 source data
  Th-T fluorescence, mean of three wells: 3.3293
time-course reading M110, Supplementary Fig. 47 source data
  Th-T fluorescence, mean of three wells: 3.309
time-course reading M111, Supplementary Fig. 47 source data
  Th-T fluorescence, mean of three wells: 3.3187
time-course reading M112, Supplementary Fig. 47 source data
  Th-T fluorescence, mean of three wells: 3.343
time-course reading M113, Supplementary Fig. 47 source data
  Th-T fluorescence, mean of three wells: 3.364
time-course reading M114, Supplementary Fig. 47 source data
  Th-T fluorescence, mean of three wells: 3.378
time-course reading M115, Supplementary Fig. 47 source data
  Th-T fluorescence, mean of three wells: 3.333
time-course reading M116, Supplementary Fig. 47 source data
  Th-T fluorescence, mean of three wells: 3.348
